Assay results reported in patent US20240166652A1, “MODULATORS OF THE INTEGRATED STRESS PATHWAY” (Calico Life Sciences LLC, priority 2017, published 2024).

Test system: ATF4 luciferase reporter in HEK293T cells
Assay: ATF4-Luc assay (ATF4 luciferase reporter, tunicamycin-treated HEK293T cells)
Format: cell-based, human
Details: Homo sapiens, HEK-293T; HEK293T cells carrying the ATF4 luciferase reporter, 1 μg/mL tunicamycin, 7 hours
Method: In order to test exemplary compounds of the invention in a cellular context, a stable VWMD cell line was first constructed. The ATF4 reporter was prepared by fusing the human full-length ATF4 5′-UTR (NCBI Accession No. BC022088.2) in front of the firefly luciferase (FLuc) coding sequence lacking the initiator methionine as described in Sidrauski et al (eLife 2013). The construct was used to produce recombinant retroviruses using standard methods and the resulting viral supernatant was used to transduce HEK293T cells, which were then subsequently selected with puromycin to generate a stable cell line.
HEK293T cells carrying the ATF4 luciferase reporter were plated on polylysine coated 384-well plates (Greiner Bio-one) at 30,000 cells per well. Cells were treated the next day with 1 μg/mL tunicamycin and 200 nM of a compound of Formula (I) for 7 hours. Luminescence was measured using One Glo (Promega) as specified by the manufacturer. Cells were maintained in DMEM with L-glutamine supplemented with 10% heat-inactivated FBS (Gibco) and Antibiotic-Antimycotic solution (Gibco).
Table 2 below summarizes the EC50 data obtained using the ATF4-Luc assay for exemplary compounds of the invention.

SMILES	EC50
Nc1cc(OCC(=O)NC23CC(NC(=O)COc4ccc(Cl)c(F)c4)(C2)C3)ccc1Cl [Compound 228, 2-(3-amino-4-chlorophenoxy)-N-{3-[2-(4-chloro-3-fluorophenoxy)acetamido]-bicyclo[1.1.1]pentan-1-yl}acetamide]	< 10 nM
O=C(COc1ccc(Cl)c(F)c1)NC12CC(NS(=O)(=O)CCOc3ccccc3)(C1)C2 [Compound 488, 2-(4-chloro-3-fluorophenoxy)-N-{3-[(2-phenoxyethanesulfonyl)amino]bicyclo[1.1.1]pentan-1-yl}acetamide]	> 2000 nM
CN(CC(=O)NC12CC(NC(=O)COc3ccc(Cl)c(Cl)c3)(C1)C2)c1ccc(Cl)cc1 [Compound 200, N^2-(4-chlorophenyl)-N-{3-[2-(3,4-dichlorophenoxy)acetamido]-bicyclo[1.1.1]pentan-1-yl}-N^2-methylglycinamide]	> 2000 nM
O=C(COc1ccc(Cl)c(F)c1)NC12CC(NC(=O)[C@@H](CO)Oc3ccc(Cl)c(F)c3)(C1)C2 [Compound 418, (2R)-2-(4-chloro-3-fluorophenoxy)-N-{3-[2-(4-chloro-3-fluorophenoxy)acetamido]bicyclo[1.1.1]pentan-1-yl}-3-hydroxypropanamide]	10 to 50 nM
Cc1cc(COCC(=O)NC23CC(NC(=O)COc4ccc(Cl)c(F)c4)(C2)C3)cc(C)n1 [Compound 282, 2-(4-chloro-3-fluorophenoxy)-N-(3-{2-[(2,6-dimethylpyridin-4-yl)methoxy]acetamido}bicyclo[1.1.1]pentan-1-yl)acetamide]	> 2000 nM
N#Cc1ccc(OCC(=O)NC23CC(NC(=O)COc4ccc(Cl)c(F)c4)(C2)C3)nc1 [Compound 215, 2-(4-chloro-3-fluorophenoxy)-N-(3-{2-[(5-cyanopyridin-2-yl)oxy]acetamido}bicyclo[1.1.1]pentan-1-yl)acetamide]	50 to 250 nM
O=C(COc1ccnc(C(F)F)c1)NC12CC(NC(=O)COc3ccc(Cl)c(F)c3)(C1)C2 [Compound 378, 2-(4-chloro-3-fluorophenoxy)-N-[3-(2-{[2-(difluoromethyl)pyridin-4-yl]oxy}acetamido)bicyclo[1.1.1]pentan-1-yl]acetamide]	10 to 50 nM
O=C(COc1ccn2nccc2c1)NC12CCC(NC(=O)COc3ccc(Cl)c(F)c3)(CC1)[C@@H](O)C2 [Compound 645, 2-(4-chloro-3-fluorophenoxy)-N-[(2S)-2-hydroxy-4-{2-[(pyrazolo[1,5-a]pyridin-5-yl)oxy]acetamido}bicyclo[2.2.2]octan-1-yl]acetamide]	< 10 nM
O=C(COc1ccc(OC(F)(F)F)c(F)c1)NC12CCC(NC(=O)COc3ccc(Cl)cc3)(CC1)[C@@H](O)C2 [Compound 759, 2-(4-chlorophenoxy)-N-[(2S)-4-{2-[3-fluoro-4-(trifluoromethoxy)phenoxy]acetamido}-2-hydroxybicyclo[2.2.2]octan-1-yl]acetamide]	< 10 nM
O=C(COc1ccc(Cl)c(F)c1)NC12CCC(NC(=O)COc3cccnn3)(CC1)[C@@H](O)C2 [Compound 806, 2-(4-chloro-3-fluorophenoxy)-N-[(3S)-3-hydroxy-4-{2-[(pyridazin-3-yl)oxy]acetamido}bicyclo[2.2.2]octan-1-yl]acetamide]	500 to 2000 nM
O=C(CC(=O)c1ccc(Cl)cc1)NC12CCC(NC(=O)COc3ccc(Cl)c(F)c3)(CC1)[C@@H](O)C2 [Compound 807, N-{(3S)-4-[2-(4-chloro-3-fluorophenoxy)acetamido]-3-hydroxybicyclo[2.2.2]octan-1-yl}-3-(4-chlorophenyl)-3-oxopropanamide]	10 to 50 nM
O=C(COc1ccc(C(F)(F)F)nc1)NC12CCC(NC(=O)COc3ccc(Cl)c(F)c3)(CC1)[C@@H](O)C2 [Compound 589, 2-(4-chloro-3-fluorophenoxy)-N-[(2S)-2-hydroxy-4-(2-{[6-(trifluoromethyl)pyridin-3-yl]oxy}acetamido)bicyclo[2.2.2]octan-1-yl]acetamide]	< 10 nM
O=C(COc1ccc(Cl)c(F)c1)NC12CC(NC(=O)Cc3cc(F)cc(F)c3)(C1)C2 [Compound 491, 2-(4-chloro-3-fluorophenoxy)-N-{3-[2-(3,5-difluorophenyl)acetamido]bicyclo[1.1.1]pentan-1-yl}acetamide]	> 2000 nM
O=C(COc1ccc(Cl)c(F)c1)NC12CC(NC(=O)COc3ccc(Cl)c(I)c3)(C1)C2 [Compound 260, 2-(4-chloro-3-fluorophenoxy)-N-{3-[2-(4-chloro-3-iodophenoxy)acetamido]-bicyclo[1.1.1]pentan-1-yl}acetamide]	< 10 nM
O=C(COc1ccc(Cl)c(F)c1)NC12CCC(NC(=O)Cc3cccc(C(F)(F)F)c3)(CC1)C(O)C2 (centres unmarked) [Compound 321, 2-(4-chloro-3-fluorophenoxy)-N-(3-hydroxy-4-{2-[3-(trifluoromethyl)phenyl]acetamido}bicyclo[2.2.2]octan-1-yl)acetamide]	500 to 2000 nM
O=C(COc1ccc(OC(F)(F)F)c(F)c1)NC12CCC(NC(=O)COc3ccc(F)cc3)(CC1)[C@@H](O)C2 [Compound 762, 2-(4-fluorophenoxy)-N-[(2S)-4-{2-[3-fluoro-4-(trifluoromethoxy)phenoxy]acetamido}-2-hydroxybicyclo[2.2.2]octan-1-yl]acetamide]	< 10 nM
O=C(CCOc1ccc(Cl)c(F)c1)NC12CCC(NC(=O)COc3ccc(Cl)cc3)(CC1)CC2 [Compound 729, 3-(4-chloro-3-fluorophenoxy)-N-{4-[2-(4-chlorophenoxy)acetamido]bicyclo[2.2.2]octan-1-yl}propanamide]	50 to 250 nM
O=C(COc1ccc(Cl)c(Cl)c1)NC12CC(NCCOc3ccc(Cl)cc3F)(C1)C2 [Compound 123, N-(3-{[2-(4-chloro-2-fluorophenoxy)ethyl]amino}bicyclo[1.1.1]pentan-1-yl)-2-(3,4-dichlorophenoxy)acetamide]	10 to 50 nM
O=C(COc1ccc(Cl)c(F)c1)NC12CC(NC(=O)COc3ccc(OC(F)(F)F)c(F)c3)(C1)C2 [Compound 415, 2-(4-chloro-3-fluorophenoxy)-N-(3-{2-[3-fluoro-4-(trifluoromethoxy)phenoxy]acetamido}bicyclo[1.1.1]pentan-1-yl)acetamide]	< 10 nM
O=C(COc1ccc(Cl)c(F)c1)NC12CC(NC(=O)COc3cc(F)c(F)c(F)c3)(C1)C2 [Compound 416, 2-(4-chloro-3-fluorophenoxy)-N-{3-[2-(3,4,5-trifluorophenoxy)acetamido]bicyclo[1.1.1]pentan-1-yl}acetamide]	< 10 nM
O=C(COCc1cccc(Cl)c1)NC12CC(NC(=O)COc3ccc(Cl)c(Cl)c3)(C1)C2 [Compound 158, 2-[(3-chlorophenyl)methoxy]-N-{3-[2-(3,4-dichlorophenoxy)acetamido]-bicyclo[1.1.1]pentan-1-yl}acetamide]	< 10 nM
O=C(COc1ccc(Cl)c(F)c1)N[C@@H]1CC[C@]2(NC(=O)COc3ccc(Cl)c(F)c3)CC[C@H]1C2 (racemic) [Compound 653, rac-N,N′-[(1S,4S,5R)-bicyclo[3.2.1]octane-1,4-diyl]bis[2-(4-chloro-3-fluorophenoxy)acetamide]]	< 10 nM
Cc1cc(OCC(=O)NC23CC(NC(=O)COc4ccc(Cl)cc4)(C2)C3)ccc1Cl [Compound 116, 2-(4-chloro-3-methylphenoxy)-N-{3-[2-(4-chlorophenoxy)acetamido]bicyclo-[1.1.1]pentan-1-yl}acetamide]	< 10 nM
Nc1nc(Cl)ccc1OCC(=O)NC12CC(NC(=O)COc3ccc(Cl)c(F)c3)(C1)C2 [Compound 236, 2-[(2-amino-6-chloropyridin-3-yl)oxy]-N-{3-[2-(4-chloro-3-fluorophenoxy)acetamido]bicyclo[1.1.1]pentan-1-yl}acetamide]	10 to 50 nM
Cc1ccc(OCC(=O)NC23CCC(NC(=O)COc4ccc(F)c(F)c4)(CC2)[C@@H](O)C3)cc1 [Compound 788, 2-(3,4-difluorophenoxy)-N-{(2S)-2-hydroxy-4-[2-(4-methylphenoxy)acetamido]bicyclo[2.2.2]octan-1-yl}acetamide]	< 10 nM
O=C(COc1ccc(Cl)c(F)c1)NC12CCC(NC(=O)COc3ccc(Cl)c(F)c3)(CC1)[C@@H](c1nn[nH]n1)C2 [Compound 419, N,N′-[(2S)-2-(2H-tetrazol-5-yl)bicyclo[2.2.2]octane-1,4-diyl]bis[2-(4-chloro-3-fluorophenoxy)acetamide]]	50 to 250 nM
O=C(COc1ccc(Cl)c(F)c1)NC12CCC(NC(=O)COc3ccc(F)c(OC(F)(F)F)c3)(CC1)[C@@H](O)C2 [Compound 772, 2-(4-chloro-3-fluorophenoxy)-N-[(3S)-4-{2-[4-fluoro-3-(trifluoromethoxy)phenoxy]acetamido}-3-hydroxybicyclo[2.2.2]octan-1-yl]acetamide]	< 10 nM
O=C(COc1ccc(Cl)c(F)c1)N[C@@]12CC[C@@](NC(=O)COc3ccc(Cl)c(F)c3)(C[C@@H]1O)[C@@H](O)C2 (racemic) [Compound 552, rac-N,N′-[(1R,2S,4R,5S)-2,5-dihydroxybicyclo[2.2.2]octane-1,4-diyl]bis[2-(4-chloro-3-fluorophenoxy)acetamide]]	< 10 nM
O=C(COc1nc2c(s1)CCCC2)NC12CCC(NC(=O)COc3ccc(Cl)c(F)c3)(CC1)[C@@H](O)C2 [Compound 578, 2-(4-chloro-3-fluorophenoxy)-N-[(2S)-2-hydroxy-4-{2-[(4,5,6,7-tetrahydro-1,3-benzothiazol-2-yl)oxy]acetamido}bicyclo[2.2.2]octan-1-yl]acetamide]	> 2000 nM
